In data set [1] the test system is Fibroblasts of human origin. Nature of the data set: Fibroblast cytotoxicity test (MTT). The format is cell-based. The note with it: 24 h. As to the method:
A. Fibroblast cytotoxicity test
Test materials: Fibroblasts of human origin (Guangdong Boxi Biotechnology Co., Ltd., Lot No. Fb20081902), DMEM culture medium (Gibco, 23042301, expiration date on 230522), PBS (Solarbio, P1010), MTT (Sigma, M5655), DMSO (Sigma, D4540-1L), CO2 incubator (Thermo, 150I), super-clean bench (AIRTECH, SW-CJ-1F), inverted microscope (Olympus, CKX53).
Test methods: • 1) Cell inoculation: After cell resuscitation, the cells were inoculated into 96-well plates when the plating rate reached around 60%, and were incubated overnight in an incubator (37°C, 5% CO2). • 2) Test grouping: The blank group, solvent control group, positive control group, and sample group were set for the test. In the sample group, 7 concentration gradients were set for each sample and 3 duplicate wells were set for each concentration gradient. • 3) Formulation of solutions: Sample working solutions at different concentrations were formulated based on the test concentrations of 0.0781 µM, 0.1563 µM, 0.3125 µM, 0.625 µM, 1.25 µM, 2.5 µM, and 5 µM. • 4) Administration: Administration was performed when the cell plating rate in the 96-well plates reached 50% to 60%. 200 µL of culture medium per well was added for the solvent control group; 200 µL of culture medium containing 10% DMSO per well was added for the positive control group; 200 µL of culture medium containing the sample at a corresponding concentration per well was added for the sample group; The blank group had no cell inoculation, for which only 200 µL of cell culture medium was added. After the administration was complete, the 96-well plates were incubated in an incubator (37°C, 5% CO2) for 24 h. • 5) Detection: After 24 h of cell incubation and culture, the supernatant was discarded, and MTT working solution (0.5 mg/mL) was added. Incubation was performed at 37°C for 4 h in the dark. After the incubation was completed, the supernatant was discarded and 150 µL DMSO was added to each well. The OD value was read at 490 nm. • 6) Calculation of relative viability of cells: Calculation was performed according to the formula below: Relative viability of cells = (Sample well OD−Blank well OD)/(Solvent control well OD−Blank well OD) × 100%. [formula]

The test system of the next data set is hyaluronic acid (HA). Nature of the data set: Hyaluronic acid (HA) elevation effect in fibroblasts (ELISA). The note with it: 1 µM, 24 h. The format is cell-based, human. On the set-up: HA elevation effect in the fibroblasts: unit not given here. From the text: (§1) B. Collagen I (type I collagen) elevation effect in fibroblasts, hyaluronic acid (HA) elevation effect in fibroblasts, and elastin (ELN) elevation effect in fibroblasts
(§2) Test materials: Fibroblasts of human origin (Guangdong Boxi Biotechnology Co., Ltd., Lot No. Fb20081902), DMEM culture medium (Gibco, 23042301, expiration date 230522), PBS (Solarbio, P1010), TGF-β1 (Peprotech, 230504), Collagen I ELISA Kit (Cusabio, B21025824), Elastin ELISA kit (Abcam, GR3446070-2), HA ELISA kit (RD, P325066). CO2 incubator (Thermo, 1501), super-clean bench (AIRTECH, SW-CJ-1F), microplate reader (BioTek, Epoch).
(§3) Test methods: • 1) Inoculation: After cell resuscitation, the cells were inoculated into 6-well plates when the plating rate reached around 60%, and were incubated overnight in an incubator (37°C, 5% CO2). • 2) Formulation of solutions: The cyclic peptide compounds in the sample group, PC2 (Biotinoyl-GHK, [drawing 2] ) and PC3 [drawing 3] in the positive reference group were all at the concentration of 1 µM, and the test substance working solutions were formulated. Only the cell culture medium was added for the blank control group (BC). • 3) Administration: When the cell plating rate in the 6-well plates reached 40% to 60%, administration was performed at 2 mL per well. 3 duplicate wells were set for each group. Incubation was performed in an incubator (37°C, 5% CO2) for 24 h. • 4) ELISA assay: The ELISA assay was performed according to the instructions of the ELISA kit, with the detection indicators being Collagen I elevation effect in the fibroblasts, HA elevation effect in the fibroblasts, and elastin elevation effect in the fibroblasts.
On the technique in general: An ELISA detects its analyte on a solid surface through an enzyme-linked reagent.

The test system of data set [2] is Collagen I (type I collagen). Nature of the data set: Collagen I elevation effect in fibroblasts (ELISA). The format is cell-based, human. The note with it: 1 µM, 24 h; result in words.
Source text: as §1, §2, §3

The test system of a further data set is elastin (ELN). Nature of the data set: Elastin (ELN) elevation effect in fibroblasts (ELISA). The format is cell-based, human. The note with it: 1 µM, 24 h. More on the design: Elastin elevation effect in the fibroblasts: unit not given here.
Source text: as §1, §2, §3

“And” between values parts separate entries of the source, which are not always exact repeats. Equal values may be shown once. Residues, ends and D or L forms follow the SMILES beside them.

In the case of `CC(C)C[C@@H]1NC(=O)[C@H](Cc2ccccc2)NC(=O)[C@H](CC(C)C)NC(=O)[C@H](CCCCN)NC(=O)[C@H](Cc2c[nH]cn2)NC(=O)CNC1=O` [compound 292] (cyclo(FLGHKL)), the “Relative viability of cells” value in data set [1] (0.0781 µM, OD 490 nm) was found to be 107.68%; in data set [1] (0.1563 µM, OD 490 nm), 107.63%; in data set [1] (0.3125 µM, OD 490 nm) it was 105.05%; in data set [1] (0.625 µM, OD 490 nm), 102.37%; in data set [1] (1.25 µM, OD 490 nm), 102.07%; in data set [1] (2.5 µM, OD 490 nm), 102.88%. Further, the “Relative viability of cells” value in data set [1] (5 µM, OD 490 nm) is on record as 102.88%. For the same molecule, the “HA elevation effect in the fibroblasts” value in the data set with hyaluronic acid (HA) (ELISA, Blank control (BC) 1402.44) amounted to 2635.98. In addition, the “hyaluronic acid (HA) content compared to the BC” value in the data set on hyaluronic acid (HA) (result in words) is listed as “significant increase”. For the same molecule, the “type I collagen (Collagen I) content compared to the BC” value in data set [2] is “significant increase”. Further, the “Elastin elevation effect in the fibroblasts” value with elastin (ELN) (ELISA, Blank control (BC) 756.52) is 1278.99. Moreover, the “elastin content compared to the BC” value in the data set on elastin (ELN) (result in words) is recorded as “significant increase”.

Regarding `C[S+](C)[O-]` [10% DMSO, DMSO], the “Relative viability of cells” value in data set [1] (Positive control 10% DMSO, 1440 min) was 0.30% and 1.87% and 1.62% and 1.17% and 0.61% and 2.07% and 0.54% and 0.43%.

For the origin of these results see patent EP4786484A1, “CYCLIC PEPTIDE COMPOUND AND USE THEREOF” (Shenzhen Zhongge Biological Technology Co., Ltd., priority 2023, dated 2026).
